Each structure is given as a SMILES string. Active and inactive are the calls of the source. The rule behind the calls is not given here.

The test system of test [1] is Trialeurodes vaporariorum. Kind of test: Insecticidal activity against Trialeurodes vaporariorum in bean plant leaf up to 50 days by glasshouse method. It counts as functional, organism-based.
The test system of test [2] is Trialeurodes vaporariorum. Put plainly: Insecticidal activity against Trialeurodes vaporariorum in ten-leaf stage of bean plant after 10 to 35 days. It counts as functional, organism-based.

Consider `CC(COc1ccc(Oc2ccccc2)cc1)Oc1ccccn1` (racemic), for which the result in test [1] and in test [2] was Active.
